Data as given in patent US20250042872A1, “NOVEL SALT OF 1-SULFONYL PYRROLE DERIVATIVE, METHOD FOR PREPARING SAME, AND PHARMACEUTICAL COMPOSITION INCLUDING SAME” (ILDONG PHARMACEUTICAL CO., LTD., priority 2021, published 2025).
Converted amounts (≈) assume the structure as drawn. Structures can show the parent of a compound that is named as a salt. Where two headings read alike, the source gives them in different places.

Legend:
Type in all cases: physicochemical
[1] = Evaluation of solubility in biorelevant media (water, SGF, FaSSIF, FeSSIF), HPLC; settings: for solubility at 1 h / solubility at 24 h: 37 °C, thermodynamic from solid; for solubility at 1 h / solubility at 24 h / Solubility-1 h Concentration / Solubility-24 h Concentration: 37° C.; for solubility at 1 h: read-out: Solubility-1 h Concentration; for solubility at 24 h: read-out: Solubility-24 h Concentration
Description: Solubility in biorelevant media, such as SGF, FeSSIF, and FaSSIF was confirmed with respect to the free base and the hydrochloride salt, succinate salt and L-tartrate salt of 1-(5-(2-fluorophenyl)-4-methoxy-1-((6-methoxypyridin-3-yl)sulfonyl)-1H-pyrrole-3-yl)-N-methylmethanamine that was confirmed through the salt screening analysis result.
Buffers for the biorelevant media were prepared as follows.
Water: Laboratory Milli-Q purified water.
SGF (Stimulated Gastric Fluid): 2.0 g of sodium chloride and 7 mL of hydrochloric acid dissolved in 1000 mL of water were used.
FaSSIF (Fasted State Simulated Intestinal Fluid): A commercial product purchased from Bio-Relevant Company and manufactured according to instructions was used.
FeSSIF (Fed State Simulated Intestinal Fluid): A commercial product purchased from Bio-Relevant Company and prepared according to instructions was used.
For the experiment, about 10 mg of a compound was weighed into each glass vial and then added with 1 mL of a medium (final concentration of 10 mg/mL). Then, the sample was continuously stirred in a magnetic stirrer at 37° C. at a speed of 200 rpm. After stirring for 1 hour and 24 hours, 0.5 mL of the sample solution was transferred to a 1.5 mL centrifuge tube and centrifuged at 12,000 rpm for 5 minutes. The supernatant was diluted with suitable methanol and analyzed by HPLC.
The free acid was selected as a standard sample to quantify the solubility, and about 10 mg of the free acid was weighed into a 25 mL flask and dissolved in methanol to the […].

[2] = Measurement of hygroscopicity by dynamic vapor sorption (DVS); settings: FIGS. 22 and 23
Description: Using DVS intrinsic manufactured by SMS Co., Ltd, about 20 mg of the sample was tested for water sorption/desorption profiles at 25° C. under a 0%˜95%˜0% relative humidity (RH) cycle using the following parameters. • Temperature: T=25° C. • Equilibrium: dm/dt: 0.01%/min. • Range of RH (%) measurement step: 0%˜95%˜0%; RH(%) measurement step: 5%
Using the dynamic vapor sorption (DVS) test method described above, the hygroscopicity was measured for the hydrochloride salt prepared in Example 1 and the L-tartrate salt prepared in Example 8, and the results thereof were shown in FIGS. 22 and 23.

[3] = Evaluation of drug stability under stress conditions (high temperature open condition 60° C.), XRPD and HPLC; settings: 60° C. open; for HPLC peak RT 10.063 min, RRT 1.00 (main peak): in %; for stability under harsh conditions (in words): up to week 2
Description: 10 mg and 40 mg of the free base and the hydrochloride salt of 1-(5-(2-fluorophenyl)-4-methoxy-1-((6-methoxypyridin-3-yl)sulfonyl)-1H-pyrrole-3-yl)-N-methylmethanamine were weighed into each vial and stored under stress conditions to investigate stability.
The stress conditions are as follows:
High temperature open condition: 60° C.;
The bottle neck of the vial was wrapped with aluminum foil with pinholes to avoid contamination, and the samples were analyzed by XRPD and HPLC at the onset (day 0), week 1 and week 2.

[4] = SGF, simulated gastric fluid, SGF

SMILES	solubility at 1 h ([1]; FaSSIF, fassif, FaSSIF)	solubility at 24 h ([1]; FaSSIF, fassif, FaSSIF)	solubility at 1 h ([1]; FeSSIF, fessif, FeSSIF)	solubility at 24 h ([1]; FeSSIF, fessif, FeSSIF)	solubility at 1 h [1, 4]	solubility at 24 h [1, 4]	solubility at 1 h ([1]; water, water, water)	solubility at 24 h ([1]; water, water, water)	hygroscopicity (in words) [2]	Solubility-1 h Concentration ([1]; FaSSIF)	Solubility-24 h Concentration ([1]; FaSSIF)	Assay % ([3]; onset (day 0))	stability under harsh conditions (in words) [3]	Assay % ([3]; week 1)	other results
CNCc1cn(S(=O)(=O)c2ccc(OC)nc2)c(-c2ccccc2F)c1OC.O=C(O)CCC(=O)O [Succinate salt, succinate salt of 1-(5-(2-fluorophenyl)-4-methoxy-1-((6-methoxypyridin-3-yl)sulfonyl)-1H-pyrrole-3-yl)-N-methylmethanamine]	8100 µg/mL	> 10000 µg/mL	4780 µg/mL	4720 µg/mL	> 10000 µg/mL	> 10000 µg/mL	> 10000 µg/mL	> 10000 µg/mL							
CNCc1cn(S(=O)(=O)c2ccc(OC)nc2)c(-c2ccccc2F)c1OC.O=C(O)C(O)C(O)C(=O)O [L-tartrate salt, L-tartrate salt of 1-(5-(2-fluorophenyl)-4-methoxy-1-((6-methoxypyridin-3-yl)sulfonyl)-1H-pyrrole-3-yl)-N-methylmethanamine]	8160 µg/mL	> 10000 µg/mL	4550 µg/mL	4540 µg/mL	> 10000 µg/mL	> 10000 µg/mL	> 10000 µg/mL	> 10000 µg/mL	very low hygroscopicity						
CNCc1cn(S(=O)(=O)c2ccc(OC)nc2)c(-c2ccccc2F)c1OC [Free base, 1-(5-(2-fluorophenyl)-4-methoxy-1-((6-methoxypyridin-3-yl)sulfonyl)-1H-pyrrole-3-yl)-N-methylmethanamine]										1440 µg/mL (≈ 3.55 mM)	1440 µg/mL (≈ 3.55 mM)	100.00%	high impurity content	87.44%	Solubility-1 h Concentration ([1]; FeSSIF): 4570 µg/mL (≈ 11.3 mM); Solubility-24 h Concentration ([1]; FeSSIF): 4770 µg/mL (≈ 11.8 mM); Solubility-1 h Concentration ([1]; SGF): >10000 µg/mL; Solubility-24 h Concentration ([1]; SGF): >10000 µg/mL; Solubility-1 h Concentration ([1]; water): 8560 µg/mL (≈ 21.1 mM); Solubility-24 h Concentration ([1]; water): 8630 µg/mL (≈ 21.3 mM); HPLC peak RRT 1.07 ([3]; onset (day 0)): 0.66%; HPLC peak RT 10.063 min, RRT 1.00 (main peak) ([3]; onset (day 0)): 93.15; HPLC peak RRT 1.07 ([3]; week 1): 0.57%; HPLC peak RT 6.797 min, RRT 0.68 ([3]; week 1): 0.43%; HPLC peak RT 7.563 min, RRT 0.75 ([3]; week 1): 1%; HPLC peak RT 10.277 min, RRT 1.02 ([3]; week 1): 9.95%; HPLC peak RRT 0.93 ([3]; week 2): 0.14%; HPLC peak RT 10.063 min, RRT 1.00 (main peak) ([3]; week 2): 65.00
CNCc1cn(S(=O)(=O)c2ccc(OC)nc2)c(-c2ccccc2F)c1OC [Hydrochloride salt, hydrochloride salt of 1-(5-(2-fluorophenyl)-4-methoxy-1-((6-methoxypyridin-3-yl)sulfonyl)-1H-pyrrole-3-yl)-N-methylmethanamine]			4450 µg/mL	4370 µg/mL	> 10000 µg/mL	> 10000 µg/mL	> 10000 µg/mL	> 10000 µg/mL	very low hygroscopicity	9710 µg/mL	5920 µg/mL	100.50%	excellent stability	106.14%	solubility in FaSSIF (in words) ([1]; fasted state simulated intestinal fluid): very good
